Test results as given in patent US7767659B2, “Synthesis of naturally occurring ecteinascidins and related compounds” (Pharma Mar, S.A., priority 2002, dated 2010).

Columns and labels:
A-549 = assay: cells; details: Homo sapiens, A549, 48 h; for GI50: read-out: A549 GI50; for CC50: read-out: A549 LC50; for IC (TGI): read-out: A549 TGI
In short: (§1)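 Colorimetric SRB read (490 nm) on triplicate wells after 48 h at 37 °C, 5% CO2. Dose range 10 to 10^−8 μg/ml; 5×10^3 cells/well pre-attached 18 h.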

HT-29 = assay: cells; details: Homo sapiens, HT-29, 48 h; for GI50: read-out: HT29 GI50; for CC50: read-out: HT29 LC50; for IC (TGI): read-out: HT29 TGI
In short: as §1

LoVo = assay: cells; details: Homo sapiens, LoVo, 48 h; for GI50: read-out: LOVO GI50; for CC50: read-out: LOVO LC50; for IC (TGI): read-out: LOVO TGI
In short: as §1

DU-145 = assay: Inhibition of cells growth by colorimetric assay (SRB); details: Homo sapiens, DU-145, 48 h; for GI50: read-out: DU145 GI50; for CC50: read-out: DU145 LC50; for IC (TGI): read-out: DU145 TGI
In short: as §1

HeLa-APL = assay: as above; details: Homo sapiens, 48 h; for GI50: read-out: HELA-APL GI50; for CC50: read-out: HELA-APL LC50; for IC (TGI): read-out: HELA-APL TGI
In short: as §1

HeLa = assay: as above; details: Homo sapiens, HeLa, 48 h; for GI50: read-out: HELA GI50; for CC50: read-out: HELA LC50; for IC (TGI): read-out: HELA TGI
In short: as §1

IGROV-1 = assay: as above; details: Homo sapiens, IGROV-1, 48 h; for GI50: read-out: IGROV GI50; for CC50: read-out: IGROV LC50; for IC (TGI): read-out: IGROV TGI
In short: as §1

IGROV-ET = assay: as above; details: Homo sapiens, 48 h; for GI50: read-out: IGROV-ET GI50; for CC50: read-out: IGROV-ET LC50; for IC (TGI): read-out: IGROV-ET TGI
In short: as §1

K-562 = assay: as above; details: Homo sapiens, K562, 48 h; for GI50: read-out: K562 GI50; for CC50: read-out: K562 LC50; for IC (TGI): read-out: K562 TGI
In short: as §1

LNCaP = assay: as above; details: Homo sapiens, LNCaP, 48 h; for GI50: read-out: LNCAP GI50; for CC50: read-out: LNCAP LC50; for IC (TGI): read-out: LNCAP TGI
In short: as §1

LoVo-Dox = assay: as above; details: Homo sapiens, 48 h; for GI50: read-out: LOVO-DOX GI50; for CC50: read-out: LOVO-DOX LC50; for IC (TGI): read-out: LOVO-DOX TGI
In short: as §1

PANC-1 = assay: as above; details: Homo sapiens, PANC-1, 48 h; for GI50: read-out: PANC-1 GI50; for CC50: read-out: PANC-1 LC50; for IC (TGI): read-out: PANC-1 TGI
In short: as §1

SK-BR-3 = assay: as above; details: Homo sapiens, SK-BR-3, 48 h; for GI50: read-out: SK-BR3 GI50; for CC50: read-out: SK-BR3 LC50; for IC (TGI): read-out: SK-BR3 TGI
In short: as §1

SK-MEL-28 = assay: as above; details: Homo sapiens, SK-MEL-28, 48 h; for GI50: read-out: MEL-28 GI50; for CC50: read-out: MEL-28 LC50; for IC (TGI): read-out: MEL-28 TGI
In short: as §1

COc1c(C)cc2c(c1O)[C@H]1N[C@@H](C2)[C@H](O)N2C1[C@@H]1SC[C@]3(NCCc4c3[nH]c3ccccc43)C(=O)OC[C@H]2c2c3c(c(C)c(OC(C)=O)c21)OCO3 (stereo partly drawn) [compound 63]
GI50 (A-549): 24 nM | CC50 (A-549): 273 nM | IC (TGI) (A-549): 61.4 nM | GI50 (HT-29): 9.17 nM | CC50 (HT-29): 13500 nM | IC (TGI) (HT-29): 327 nM | GI50 (LoVo): 8.63 nM | CC50 (LoVo): 13500 nM | IC (TGI) (LoVo): 54.8 nM | GI50 (DU-145): 3.48 nM | CC50 (DU-145): 4400 nM | IC (TGI) (DU-145): 7.24 nM | GI50 (HeLa-APL): 11 nM | CC50 (HeLa-APL): 150 nM | IC (TGI) (HeLa-APL): 39.8 nM | GI50 (HeLa): 3.16 nM | CC50 (HeLa): 12.5 nM | IC (TGI) (HeLa): 6.29 nM | GI50 (IGROV-1): 5.4 nM | CC50 (IGROV-1): 4.49 nM | IC (TGI) (IGROV-1): 15 nM | GI50 (IGROV-ET): 75.9 nM | CC50 (IGROV-ET): 13300 nM | IC (TGI) (IGROV-ET): 537 nM | GI50 (K-562): 3.86 nM | CC50 (K-562): 634 nM | IC (TGI) (K-562): 7.92 nM | GI50 (LNCaP): 2.86 nM | CC50 (LNCaP): 10 nM | IC (TGI) (LNCaP): 5.36 nM | GI50 (LoVo-Dox): 398 nM | CC50 (LoVo-Dox): 13500 nM | IC (TGI) (LoVo-Dox): 1090 nM | GI50 (PANC-1): 4.6 nM | CC50 (PANC-1): 4270 nM | IC (TGI) (PANC-1): 17.4 nM | GI50 (SK-BR-3): 3.93 nM | CC50 (SK-BR-3): 198 nM | IC (TGI) (SK-BR-3): 8.98 nM | GI50 (SK-MEL-28): 5.64 nM | CC50 (SK-MEL-28): 52.6 nM | IC (TGI) (SK-MEL-28): 17 nM

COc1ccc2[nH]c3c(c2c1)CCN[C@]31CS[C@@H]2c3c(OC(C)=O)c(C)c4c(c3[C@H](COC1=O)N1C2[C@@H]2N[C@@H](Cc3cc(C)c(OC)c(O)c32)[C@@H]1O)OCO4 (stereo partly drawn) [compound 64]
GI50 (A-549): 5.19 nM | CC50 (A-549): 1120 nM | IC (TGI) (A-549): 36.6 nM | GI50 (HT-29): 3.58 nM | CC50 (HT-29): 13000 nM | IC (TGI) (HT-29): 13.2 nM | GI50 (LoVo): 4.15 nM | CC50 (LoVo): 12500 nM | IC (TGI) (LoVo): 10.3 nM | GI50 (DU-145): 2.89 nM | CC50 (DU-145): 13000 nM | IC (TGI) (DU-145): 153 nM | GI50 (HeLa-APL): 2.39 nM | CC50 (HeLa-APL): 9.63 nM | IC (TGI) (HeLa-APL): 4.8 nM | GI50 (HeLa): 2.4 nM | CC50 (HeLa): 10 nM | IC (TGI) (HeLa): 4.89 nM | GI50 (IGROV-1): 1.78 nM | CC50 (IGROV-1): 10.9 nM | IC (TGI) (IGROV-1): 4.41 nM | GI50 (IGROV-ET): 34.8 nM | CC50 (IGROV-ET): 8300 nM | IC (TGI) (IGROV-ET): 171 nM | GI50 (K-562): 0.86 nM | CC50 (K-562): 812 nM | IC (TGI) (K-562): 4.71 nM | GI50 (LNCaP): 1.02 nM | CC50 (LNCaP): 6.12 nM | IC (TGI) (LNCaP): 2.67 nM | GI50 (LoVo-Dox): 320 nM | CC50 (LoVo-Dox): 13000 nM | IC (TGI) (LoVo-Dox): 2760 nM | GI50 (PANC-1): 2.46 nM | CC50 (PANC-1): 13000 nM | IC (TGI) (PANC-1): 10.9 nM | GI50 (SK-BR-3): 0.717 nM | CC50 (SK-BR-3): 13000 nM | IC (TGI) (SK-BR-3): 150 nM | GI50 (SK-MEL-28): 2.65 nM | CC50 (SK-MEL-28): 20.5 nM | IC (TGI) (SK-MEL-28): 6.24 nM
